Test results from patent publication US20230194511A1, “Compound Fixing Method, Detection Method, Screening Method, Substrate Used in Same, Compound Fixing Agent, and Fixing Kit” (priority 2020, published 2023).

What was measured:
[1] = test system: anti-prostaglandin E2 antibody; test: Prostaglandin-HSA compound microarray, detection with anti-prostaglandin E2 antibody (Example 5); type: binding; conditions: prostaglandin mixed with HSA 0.1 milligram/milliliter, printed on glass slide
Protocol: The immobilization of prostaglandins, which are bioactive lipids, was verified. In this example, as the prostaglandins, prostaglandins A1, A2, A3, B1, B2, B3, D1, D2, D3, E1, E2, E3, F1a, F2a, F3a, G2, H1, H2, I2, I3, J2, K1, and K2 were used. The prostaglandins were mixed with HSA in the solvents and at the final concentrations shown in the table below to form prostaglandin and HSA complexes. It should be noted that HSA was added to achieve a final concentration of 0.1 milligram/milliliter.
Solutions including each prepared prostaglandin and HSA were spotted and printed on glass slides as microdroplets of approximately 2 to 4 nl by using an ultratrace dispensing system (Micro Diagnostic).
(§1) The compound microarrays printed with the prostaglandins were immersed in ethanol and shaken for 30 seconds at room temperature. Subsequently, the compound microarrays were immersed in ultrapure water and shaken for 30 seconds at 26° C. The shaking by ultrapure water was performed twice. For solution replacement, the compound microarrays were immersed in solution A for protein microarrays only (Fukushima Protein Factory, Fukushima, Japan) and shaken for about five minutes at 26° C.
(§2) The compound microarrays treated as described above were immersed in Blocking One (Nacalai Tesque, Kyoto, Japan) and shaken for one hour at 26° C. Subsequently, the compound microarrays were immersed in solution A for protein microarrays only and shaken for about five minutes at 26° C.
(§3) Using a solution obtained by adding 1/4000 volume of Goat Reference Antibody Mixture I (Fukushima Protein Factory) to the primary antibody diluent for protein microarrays only (Fukushima Protein Factory), an anti-prostaglandin E2 antibody (Ab00484-23.0, Absolute Antibody) was diluted to 1 microgram/milliliter.
(§4) Two milliliters of the solution with the diluted primary antibody were added to a P-DE1 cassette for protein microarrays (Fukushima Protein Factory). […]

[2] = test system: anti-amoxicillin antibodies; test: Compound microarray, detection of immobilized compound with anti-amoxicillin antibodies; type: binding, mouse; conditions: concentrations of HSA from 0.5 mM to 0.0005 mM, glass slide
Protocol: (§5) Further, compounds of bovine serum albumin (BSA) covalently bonded to these 14 compounds in advance (Imgen BioSciences) were printed on glass slides as control samples for comparison. The compounds mixed with HSA were each dissolved in solution A for protein microarrays only (Fukushima Protein Factory) to a concentration of 0.5 mM. Furthermore, HSA was prepared and mixed with the solutions A including the compounds, bringing the final concentrations to 0.1 micrograms/microliter. It should be noted that the printing of each compound on a glass slide was performed by spotting microdroplets of approximately 2 to 4 nl on the glass slide by using an ultratrace dispensing system (Micro Diagnostic).
as §1, with “the compounds” for “the prostaglandins”, “C. It should be noted that the” for “C. The”
as §2
as §3, with “one of eight mouse monoclonal anti-compound antibodies (Table 2)” for “an anti-prostaglandin E2 antibody (Ab00484-23.0, Absolute Antibody)”
as §4

[3] = test system: anti-ampicillin antibodies; test: Compound microarray, detection of immobilized compound with anti-ampicillin antibodies; type: binding, mouse; conditions: compound 0.5 mM mixed with HSA 0.1 micrograms/microliter, printed on glass slide
From the text: as §5, with “Fourteen compounds (amoxicillin, ampicillin, apramycin, bacitracin, cefalexin, ceftazidime, cloxacillin, gentamicin, hygromycin B, neomycin, penicillin G, streptomycin, sulfadimidine, and tetracycline) were each mixed with human serum albumin (HSA) (Sigma-Aldrich) and printed on glass slides. Further,” for “Further,”
(§6) The compound microarrays printed with the compounds were immersed in ethanol and shaken for 30 seconds at room temperature. Subsequently, the compound microarrays were immersed in ultrapure water and shaken for 30 seconds at 26° C. […]
(§7) The compound microarrays were dried, centrifuged at 1500 rpm for one minute, and scanned for fluorescence intensity using a GenePix 4000B (Molecular Devices, Calif., USA). […]

[4] = test system: anti-penicillin antibodies; test: Compound microarray, detection with anti-penicillin antibodies (Examples 3 and 4, clone not stated); type: binding; conditions: concentrations of HSA from 0.5 mM to 0.0005 mM, glass slide
[5] = test system: anti-penicillin [P2B9] antibodies; test: Compound microarray, detection of immobilized compound with anti-penicillin [P2B9] antibodies; type: binding, mouse; conditions: compound mixed with HSA, printed on glass slide
From the text: as §5, with “Fourteen compounds (amoxicillin, ampicillin, apramycin, bacitracin, cefalexin, ceftazidime, cloxacillin, gentamicin, hygromycin B, neomycin, penicillin G, streptomycin, sulfadimidine, and tetracycline) were each mixed with human serum albumin (HSA) (Sigma-Aldrich) and printed on glass slides. Further,” for “Further,”
as §6, §7

[6] = test system: anti-streptomycin antibodies; test: Compound microarray, detection of immobilized compound with anti-streptomycin antibodies; type: binding, mouse; conditions: compound mixed with HSA, printed on glass slide
From the text: as §5, with “Fourteen compounds (amoxicillin, ampicillin, apramycin, bacitracin, cefalexin, ceftazidime, cloxacillin, gentamicin, hygromycin B, neomycin, penicillin G, streptomycin, sulfadimidine, and tetracycline) were each mixed with human serum albumin (HSA) (Sigma-Aldrich) and printed on glass slides. Further,” for “Further,”
as §6, §7

[7] = test system: anti-dihydrosterptomycin [1.BB.891]; test: Compound microarray, detection of immobilized compound with anti-dihydrostreptomycin antibody [1.BB.891]; type: binding, mouse; conditions: compound mixed with HSA, printed on glass slide
From the text: as §5, with “Fourteen compounds (amoxicillin, ampicillin, apramycin, bacitracin, cefalexin, ceftazidime, cloxacillin, gentamicin, hygromycin B, neomycin, penicillin G, streptomycin, sulfadimidine, and tetracycline) were each mixed with human serum albumin (HSA) (Sigma-Aldrich) and printed on glass slides. Further,” for “Further,”
as §6, §7

[8] = test system: streptomycin/dihydrostreptomycin [CH-2013]; test: Compound microarray, detection of immobilized compound with streptomycin/dihydrostreptomycin antibody [CH-2013]; type: binding, mouse; conditions: compound mixed with HSA, printed on glass slide
From the text: as §5, with “Fourteen compounds (amoxicillin, ampicillin, apramycin, bacitracin, cefalexin, ceftazidime, cloxacillin, gentamicin, hygromycin B, neomycin, penicillin G, streptomycin, sulfadimidine, and tetracycline) were each mixed with human serum albumin (HSA) (Sigma-Aldrich) and printed on glass slides. Further,” for “Further,”
as §6, §7

[9] = test system: anti-gentamycin antibodies; test: Compound microarray, detection of immobilized compound with anti-gentamycin antibodies; type: binding, mouse
Protocol: as §5
as §1, with “the compounds” for “the prostaglandins”, “C. It should be noted that the” for “C. The”
The compound microarrays treated as described above were immersed in Blocking One (Nacalai Tesque, Kyoto, Japan) and shaken for one hour at 26° C. […]

CCCCC[C@H](O)/C=C/[C@H]1[C@H](O)CC(=O)[C@@H]1C/C=C\CCCC(=O)O [Prostaglandin E2]
reaction of the anti-prostaglandin E2 antibody (fluorescence intensity) [1]: reacted strongly

CC/C=C\C[C@H](O)/C=C/[C@H]1[C@H](O)CC(=O)[C@@H]1C/C=C\CCCC(=O)O [Prostaglandin E3]
reaction of the anti-prostaglandin E2 antibody (fluorescence intensity) [1]: reacted strongly

CCCCC[C@H](O)/C=C/[C@@H]1[C@H]2C/C(=C/CCCC(=O)O)O[C@H]2C[C@H]1O [Prostaglandin I2]
reaction of the anti-prostaglandin E2 antibody (fluorescence intensity) [1]: reacted strongly

CC1(C)S[C@@H]2[C@H](NC(=O)[C@H](N)c3ccc(O)cc3)C(=O)N2[C@H]1C(=O)[O-].[Na+] [amoxicillin sodium]
concentration of HSA at which the strongest signal was detected [2]: 0.05 mM | signal intensity versus HSA concentration [2]: tended to be concentration-dependent

CC1(C)S[C@@H]2[C@H](NC(=O)[C@H](N)c3ccc(O)cc3)C(=O)N2[C@H]1C(=O)O [amoxicillin]
signal intensity versus HSA concentration [2]: increased in an HSA concentration-dependence

CC1(C)S[C@@H]2[C@H](NC(=O)[C@H](N)c3ccccc3)C(=O)N2[C@H]1C(=O)O [ampicillin]
signal (Red Intensity) [3]: strong signal (strong signals (red intensity of 2000 or greater; the same below))

CC1(C)S[C@@H]2[C@H](NC(=O)Cc3ccccc3)C(=O)N2[C@H]1C(=O)[O-].[Na+] [penicillin G sodium]
signal intensity versus HSA concentration [4]: increased in an HSA concentration-dependence

CC1(C)S[C@@H]2[C@H](NC(=O)Cc3ccccc3)C(=O)N2[C@H]1C(=O)O [penicillin G]
signal (Red Intensity) [5]: weak signal

[H]/N=C(/N)N[C@H]1[C@H](O)[C@@H](O)[C@H](O[C@@H]2O[C@@H](C)[C@](O)(C=O)[C@H]2O[C@@H]2O[C@@H](CO)[C@H](O)[C@@H](O)[C@@H]2NC)[C@@H](N/C(N)=N\[H])[C@@H]1O [streptomycin]
signal (Red Intensity) [6]: weak signal | signal (Red Intensity) [7]: weak signal | signal (Red Intensity) [8]: weak signal

gentamycin sulfate
signal (red intensity) ([9]; compound 0.5 mM mixed with each immobilizing protein or HSA (0.1 micrograms/microliter), strong only with this antibody): strong signal (strong signals (red intensity of 2000 or greater; the same below)) | signal intensity versus HSA concentration ([9]; concentrations of HSA from 0.5 mM to 0.0005 mM, glass slide): increased in an HSA concentration-dependence
